Columns and labels:
GST-Bcl-2 = GST-Bcl-2 (Homo sapiens, UniProt P10415); test: TR-FRET binding assay, GST-Bcl-2 with F-Bak peptide probe; conditions: for Ki: TR-FRET Binding Affinity, GST-Bcl-2, F-Bak peptide probe
How it was run: (§1)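 Competitive TR-FRET: GST-fusion protein, fluorescent Bak peptide probe and Tb-labelled anti-GST antibody incubated with compound dilution series (starting 50 μM as 2× stock, 10% DMSO) for 3 h at RT. Excitation 340/35 nm; Ki derived via Wang's exact competitive-binding equation.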

FL5.12/Bcl-2 cells = test: FL5.12/Bcl-2 cell viability assay under IL-3 withdrawal (CellTitre Glo); assay type: cell-based, murine; conditions: Mus musculus, IL-3 withdrawn 48 hrs, then 24 hrs with compound
How it was run: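 Cells (1×10^6/ml) are washed, resuspended in medium lacking WEHI-3B conditioned medium as IL-3 source, and held 48 hrs. Compounds are then added at a range of concentrations for 24 hrs, after which CellTitre Glo reports viability.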

GST-Bcl-XL = GST-Bcl-XL (Homo sapiens, UniProt Q07817); test: TR-FRET binding assay, GST-Bcl-XL with F-Bak peptide probe; conditions: TR-FRET Binding Affinity, GST-Bcl-XL, F-Bak peptide probe
How it was run: as §1

Sequence of GST-Bcl-2 (P10415 whole entry, the tested form may be a part): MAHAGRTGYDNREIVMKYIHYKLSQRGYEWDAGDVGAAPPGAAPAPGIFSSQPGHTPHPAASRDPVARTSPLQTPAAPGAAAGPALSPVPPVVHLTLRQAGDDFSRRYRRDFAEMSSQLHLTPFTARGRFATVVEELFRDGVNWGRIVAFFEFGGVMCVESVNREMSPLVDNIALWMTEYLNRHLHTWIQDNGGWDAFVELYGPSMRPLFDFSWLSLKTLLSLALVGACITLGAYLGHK
Sequence of GST-Bcl-XL (Q07817 whole entry): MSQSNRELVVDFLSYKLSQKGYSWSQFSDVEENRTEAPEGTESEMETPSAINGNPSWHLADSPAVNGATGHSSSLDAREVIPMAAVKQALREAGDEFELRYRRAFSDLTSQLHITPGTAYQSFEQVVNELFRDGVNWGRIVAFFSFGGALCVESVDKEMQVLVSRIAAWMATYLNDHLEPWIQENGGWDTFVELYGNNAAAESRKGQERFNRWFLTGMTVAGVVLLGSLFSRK

Compound	Ki (GST-Bcl-2) [nM]	EC50 (FL5.12/Bcl-2 cells) [nM]	Ki (GST-Bcl-XL) [nM]	Binding selectivity ratio (Bcl-XL Ki/Bcl-2 Ki) (GST-Bcl-2; ratio of TR-FRET Ki values, Bcl-XL over Bcl-2)
CC1(C)CCC(CN2CCN(c3ccc(C(=O)NS(=O)(=O)c4ccc(OCC5(F)CCOCC5)c([N+](=O)[O-])c4)c(Oc4ccc5[nH]ccc5c4)c3)CC2)=C(c2ccc(Cl)cc2)C1 [Example 327, 4-(4-{[2-(4-chlorophenyl)-4,4-dimethylcyclohex-1-en-1-yl]methyl}piperazin-1-yl)-N-({4-[(4-fluorotetrahydro-2H-pyran-4-yl)methoxy]-3-nitrophenyl}sulfonyl)-2-(1H-indol-5-yloxy)benzamide]	0.031	6.57	95.6	
CC1(C)CCC(CN2CCN(c3ccc(C(=O)NS(=O)(=O)c4ccc(NCC5CCOCC5)c(C(F)(F)F)c4)c(Oc4ccc5[nH]ccc5c4)c3)CC2)=C(c2ccc(Cl)cc2)C1 [Example 277, 4-(4-{[2-(4-chlorophenyl)-4,4-dimethylcyclohex-1-en-1-yl]methyl}piperazin-1-yl)-2-(1H-indol-5-yloxy)-N-{[4-[(tetrahydro-2H-pyran-4-ylmethyl)amino]-3-(trifluoromethyl)phenyl]sulfonyl}benzamide]	29.7	> 500	> 660	
CC1(C)CCC(CN2CCN(c3ccc(C(=O)NS(=O)(=O)c4ccc(NCC5(O)CCCCC5)c([N+](=O)[O-])c4)c(Oc4ccc5[nH]ccc5c4)c3)CC2)=C(c2ccc(Cl)cc2)C1 [Example 238, 4-(4-{[2-(4-chlorophenyl)-4,4-dimethylcyclohex-1-en-1-yl]methyl}piperazin-1-yl)-N-[(4-{[(1-hydroxycyclohexyl)methyl]amino}-3-nitrophenyl)sulfonyl]-2-(1H-indol-5-yloxy)benzamide]	0.43	59	> 660	
CN(C)C1CCC(Nc2ccc(S(=O)(=O)NC(=O)c3ccc(N4CCN(CC5=C(c6ccc(Cl)cc6)CC(C)(C)CC5)CC4)cc3Oc3cccc4[nH]ccc34)cc2[N+](=O)[O-])CC1 (stereo not shown) [Example 202, 4-(4-{[2-(4-chlorophenyl)-4,4-dimethylcyclohex-1-en-1-yl]methyl}piperazin-1-yl)-N-[(4-{[4-(dimethylamino)cyclohexyl]amino}-3-nitrophenyl)sulfonyl]-2-(1H-indol-4-yloxy)benzamide]	0.052	13.8	5.07	
Cn1cncc1CNc1ccc(S(=O)(=O)NC(=O)c2ccc(N3CCN(CC4=C(c5ccc(Cl)cc5)CC(C)(C)CC4)CC3)cc2Oc2ccc3[nH]ccc3c2)cc1[N+](=O)[O-] [Example 360, 4-(4-{[2-(4-chlorophenyl)-4,4-dimethylcyclohex-1-en-1-yl]methyl}piperazin-1-yl)-2-(1H-indol-5-yloxy)-N-[(4-{[(1-methyl-1H-imidazol-5-yl)methyl]amino}-3-nitrophenyl)sulfonyl]benzamide]	0.228	106	144	
CN1CCC(Nc2ccc(S(=O)(=O)NC(=O)c3ccc(N4CCN(CC5=C(c6ccc(Cl)cc6)CC(C)(C)CC5)CC4)cc3Nc3cccnc3)cc2[N+](=O)[O-])CC1 [Example 396, 4-(4-{[2-(4-chlorophenyl)-4,4-dimethylcyclohex-1-en-1-yl]methyl}piperazin-1-yl)-N-({4-[(1-methylpiperidin-4-yl)amino]-3-nitrophenyl}sulfonyl)-2-(pyridin-3-ylamino)benzamide]	116	> 500	> 660000	>5705.9
CC1(C)CCC(CN2CCN(c3ccc(C(=O)NS(=O)(=O)c4ccc(NC5CCS(=O)(=O)C5)c([N+](=O)[O-])c4)c(Oc4ccc5[nH]ccc5c4)c3)CC2)=C(c2ccc(Cl)cc2)C1 (stereo not shown) [Example 276, 4-(4-{[2-(4-chlorophenyl)-4,4-dimethylcyclohex-1-en-1-yl]methyl}piperazin-1-yl)-N-({4-[(1,1-dioxidotetrahydrothien-3-yl)amino]-3-nitrophenyl}sulfonyl)-2-(1H-indol-5-yloxy)benzamide]	0.144	62.2	381	
COC1CCN(c2ccc(S(=O)(=O)NC(=O)c3ccc(N4CCN(CC5=C(c6ccc(Cl)cc6)CC(C)(C)CC5)CC4)cc3Oc3ccc4[nH]ccc4c3)cc2[N+](=O)[O-])CC1 [Example 271, 4-(4-{[2-(4-chlorophenyl)-4,4-dimethylcyclohex-1-en-1-yl]methyl}piperazin-1-yl)-2-(1H-indol-5-yloxy)-N-{[4-(4-methoxypiperidin-1-yl)-3-nitrophenyl]sulfonyl}benzamide]	6.16	> 500	> 660	
CC1(C)CCC(CN2CCN(c3ccc(C(=O)NS(=O)(=O)c4ccc(NCCN5CCNC(=O)C5)c([N+](=O)[O-])c4)c(Oc4cccc5[nH]ccc45)c3)CC2)=C(c2ccc(Cl)cc2)C1 [Example 280, 4-(4-{[2-(4-chlorophenyl)-4,4-dimethylcyclohex-1-en-1-yl]methyl}piperazin-1-yl)-2-(1H-indol-4-yloxy)-N-[(3-nitro-4-{[2-(3-oxopiperazin-1-yl)ethyl]amino}phenyl)sulfonyl]benzamide]	0.178	247	195	
CN1CCN(Nc2ccc(S(=O)(=O)NC(=O)c3ccc(N4CCN(CC5=C(c6ccc(Cl)cc6)CCC(O)C5)CC4)cc3Oc3ccc4[nH]ccc4c3)cc2[N+](=O)[O-])CC1 (stereo not shown) [Example 226, 4-(4-{[2-(4-chlorophenyl)-5-hydroxycyclohex-1-en-1-yl]methyl}piperazin-1-yl)-2-(1H-indol-5-yloxy)-N-({4-[(4-methylpiperazin-1-yl)amino]-3-nitrophenyl}sulfonyl)benzamide]	0.017	23	9.93	
CC1(C)CCC(CN2CCN(c3ccc(C(=O)NS(=O)(=O)c4ccc(N[C@@H]5CCN(Cc6ccccc6)C[C@@H]5O)c([N+](=O)[O-])c4)c(Oc4ccc5[nH]ccc5c4)c3)CC2)=C(c2ccc(Cl)cc2)C1 [Example 187, N-[(4-{[(3S,4R)-1-benzyl-3-hydroxypiperidin-4-yl]amino}-3-nitrophenyl)sulfonyl]-4-(4-{[2-(4-chlorophenyl)-4,4-dimethylcyclohex-1-en-1-yl]methyl}piperazin-1-yl)-2-(1H-indol-5-yloxy)benzamide]	0.329	341	> 660	
CC1(C)CCC(CN2CCN(c3ccc(C(=O)NS(=O)(=O)c4ccc(OCC5CCOCC5)c([N+](=O)[O-])c4)c(Oc4cccc5[nH]ccc45)c3)CC2)=C(c2ccc(Cl)cc2)C1 [Example 289, 4-(4-{[2-(4-chlorophenyl)-4,4-dimethylcyclohex-1-en-1-yl]methyl}piperazin-1-yl)-2-(1H-indol-4-yloxy)-N-{[3-nitro-4-(tetrahydro-2H-pyran-4-ylmethoxy)phenyl]sulfonyl}benzamide]	0.112	27.4	> 660	
CC1(C)CCC(CN2CCN(c3ccc(C(=O)NS(=O)(=O)c4cnc(NCC5CCOCC5)c(C#N)c4)c(Oc4ccc5[nH]ccc5c4)c3)CC2)=C(c2ccc(Cl)cc2)C1 [Example 352, 4-(4-{[2-(4-chlorophenyl)-4,4-dimethylcyclohex-1-en-1-yl]methyl}piperazin-1-yl)-N-({5-cyano-6-[(tetrahydro-2H-pyran-4-ylmethyl)amino]pyridin-3-yl}sulfonyl)-2-(1H-indol-5-yloxy)benzamide]	6.82	156	> 660	
CC1(C)CCC(CN2CCN(c3ccc(C(=O)NS(=O)(=O)c4ccc(NN5CCCCC5)c([N+](=O)[O-])c4)c(Oc4ccc5[nH]ccc5c4)c3)CC2)=C(c2ccc(Cl)cc2)C1 [Example 284, 4-(4-{[2-(4-chlorophenyl)-4,4-dimethylcyclohex-1-en-1-yl]methyl}piperazin-1-yl)-2-(1H-indol-5-yloxy)-N-{[3-nitro-4-(piperidin-1-ylamino)phenyl]sulfonyl}benzamide]	1.55	> 500	> 660	
CCN(CC)C1CCC(Nc2ccc(S(=O)(=O)NC(=O)c3ccc(N4CCN(CC5=C(c6ccc(Cl)cc6)CC(C)(C)CC5)CC4)cc3Oc3cccc4[nH]ccc34)cc2[N+](=O)[O-])CC1 (stereo not shown) [Example 203, 4-(4-{[2-(4-chlorophenyl)-4,4-dimethylcyclohex-1-en-1-yl]methyl}piperazin-1-yl)-N-[(4-{[4-(diethylamino)cyclohexyl]amino}-3-nitrophenyl)sulfonyl]-2-(1H-indol-4-yloxy)benzamide]	0.031	22.3	4.3	
CC1(C)CCC(CN2CCN(c3ccc(C(=O)NS(=O)(=O)c4ccc(NCC5CCS(=O)(=O)C5)c([N+](=O)[O-])c4)c(Oc4ccc5[nH]ccc5c4)c3)CC2)=C(c2ccc(Cl)cc2)C1 (stereo not shown) [Example 275, 4-(4-{[2-(4-chlorophenyl)-4,4-dimethylcyclohex-1-en-1-yl]methyl}piperazin-1-yl)-N-[(4-{[(1,1-dioxidotetrahydrothien-3-yl)methyl]amino}-3-nitrophenyl)sulfonyl]-2-(1H-indol-5-yloxy)benzamide]	0.097	38	> 660	
CC1(C)CCC(CN2CCN(c3ccc(C(=O)NS(=O)(=O)c4ccc(NCC(F)(F)F)c([N+](=O)[O-])c4)c(Oc4cccc5[nH]ccc45)c3)CC2)=C(c2ccc(Cl)cc2)C1 [Example 343, 4-(4-{[2-(4-chlorophenyl)-4,4-dimethylcyclohex-1-en-1-yl]methyl}piperazin-1-yl)-2-(1H-indol-4-yloxy)-N-({3-nitro-4-[(2,2,2-trifluoroethyl)amino]phenyl}sulfonyl)benzamide]	0.576	54.9	> 660	

Reference: patent publication US9073855B2, “BCL-2 selective apoptosis-inducing agents for the treatment of cancer and immune diseases” (AbbVie Inc., priority 2008, dated 2015)
